In patent US10611740B2, “Aryl dihydro-2H-benzo[b][1,4]oxazine sulfonamide and related compounds for use as agonists of RORγ and the treatment of disease” (Lycera Corporation, priority 2015, dated 2020):

Target: T1, RORγ-LBD (Homo sapiens, UniProt P51449)
T1 construct: made in house; host or cells: SF9 cells (baculovirus)
T1 sequence (P51449 269-508 limits assumed): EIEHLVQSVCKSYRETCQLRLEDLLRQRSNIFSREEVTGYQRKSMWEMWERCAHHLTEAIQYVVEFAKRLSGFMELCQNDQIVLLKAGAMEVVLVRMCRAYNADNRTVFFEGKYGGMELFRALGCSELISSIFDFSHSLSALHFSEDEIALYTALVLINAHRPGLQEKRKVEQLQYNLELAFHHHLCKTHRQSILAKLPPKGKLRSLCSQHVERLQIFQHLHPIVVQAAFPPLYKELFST
Assay: RORγ-Ligand Binding Domain (LBD) TR-FRET Assay;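 for TR-FRET Assay Max Response: 665/615 nm ratio relative to signal without ursolic acid or compound set at 100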
Format: biochemical
Experimental: Assay procedures and results are described below.
HIS-tagged RORγ-LBD protein was expressed in SF9 cells using a baculovirus expression system. The lysate was diluted in assay buffer (50 mM Tris pH 7.0, 50 mM KCl, 1 mM EDTA, 0.1 mM DTT, 0.01% BSA) to obtain RORγ-LBD final concentration of ˜3 nM in a 384-well assay plate (need to titrate for each batch of protein).
A stock of biotinylated-LXXLL peptide from coactivator SRC1 (Biotin-[…]) was prepared in assay buffer and added to each well (200 nM final concentration). […] RORγ antagonist ursolic acid was also included at a final concentration of 2 μM. Compounds were diluted in DMSO and further diluted in assay buffer with a final DMSO concentration at 1%.

Row | Compound | EC50 [nM] | TR-FRET Assay Max Response
1 | O=C(O)CC[C@H]1CN(S(=O)(=O)c2cccc(C(F)(F)F)c2)c2cc(-c3ccnc(Cl)n3)ccc2O1 [Compound 4AX, (S)-3-(6-(2-chloropyrimidin-4-yl)-4-((3-(trifluoromethyl)-phenyl)sulfonyl)-3,4-dihydro-2H-benzo[b][1,4]oxazin-2-yl)propanoic acid] | 500 to 5000 | ** (The symbol “**” indicates a value in the range of greater than 90 to 150)
2 | O=C(NC[C@H]1CN(S(=O)(=O)c2cccc(C(F)(F)F)c2)c2cc(-c3cccc(F)c3Cl)ccc2O1)C1(F)CC1 [Compound 30BM, (S)-N-((6-(2-chloro-3-fluoro-phenyl)-4-((3-(trifluoromethyl)-phenyl)sulfonyl)-3,4-dihydro-2H-benzo[b][1,4]oxazin-2-yl)methyl)-1-fluorocyclo-propane-1-carboxamide] | < 500 | *** (The symbol “***” indicates a value in the range of greater than 150 to 200)
3 | NS(=O)(=O)CCC(=O)NC[C@H]1CN(S(=O)(=O)c2cccc(C(F)(F)F)c2)c2cc(-c3cccc(F)c3Cl)ccc2O1 [Compound 30BK, (S)-N-((6-(2-chloro-3-fluoro-phenyl)-4-((3-(trifluoromethyl)-phenyl)sulfonyl)-3,4-dihydro-2H-benzo[b][1,4]oxazin-2-yl)methyl)-3-sulfamoylpropanamide] | < 500 | *** (The symbol “***” indicates a value in the range of greater than 150 to 200)
4 | C[C@@H](C[C@H]1CN(S(=O)(=O)c2cccc(C(F)(F)F)c2)c2cc(-c3cccc(C(F)(F)F)n3)ccc2O1)C(=O)O [Compound 46T, (S)-2-methyl-3-((S)-4-((3-(trifluoromethyl)phenyl)sulfonyl)-6-(6-(trifluoromethyl)pyridin-2-yl)-3,4-dihydro-2H-benzo[b][1,4]-oxazin-2-yl)propanoic acid] | < 500 | *** (The symbol “***” indicates a value in the range of greater than 150 to 200)
5 | O=C(O)CNC(=O)CC[C@H]1CN(S(=O)(=O)c2cccc(C(F)(F)F)c2)c2cc(-c3cccc(F)c3F)ccc2O1 [Compound 23O, (S)-(3-(6-(2,3-difluorophenyl)-4-((3-(trifluoromethyl)-phenyl)sulfonyl)-3,4-dihydro-2H-benzo[b][1,4]oxazin-2-yl)propanoyl)glycine] | < 500 | **** (The symbol “****” indicates a value greater than 200)
6 | O=C(O)CC[C@H]1CN(S(=O)(=O)c2cccc(C(F)(F)F)c2)c2cc(-c3cccc(C(F)(F)F)n3)c(Cl)cc2O1 [Compound 22F, (S)-3-(7-chloro-4-((3-(trifluoromethyl)phenyl)sulfonyl)-6-(6-(trifluoromethyl)pyridin-2-yl)-3,4-dihydro-2H-benzo[b][1,4]-oxazin-2-yl)propanoic acid] | > 10000 | –
7 | C[C@@H](C[C@H]1CN(S(=O)(=O)c2cccc(C(F)(F)F)c2)c2cc(-c3cccc(C(F)(F)F)c3)ccc2O1)C(=O)O [Compound 46L, (S)-2-methyl-3-((S)-6-(3-(trifluoromethyl)phenyl)-4-((3-(trifluoromethyl)phenyl)sulfonyl)-3,4-dihydro-2H-benzo[b][1,4]-oxazin-2-yl)propanoic acid] | < 500 | –
8 | C[C@H](C[C@H]1CN(S(=O)(=O)c2cccc(C(F)(F)F)c2)c2cc(-c3cc(Cl)cc(OC(F)F)c3)ccc2O1)C(=O)O [Compound 46Q, (R)-3-((S)-6-(3-chloro-5-(difluoromethoxy)phenyl)-4-((3-(trifluoromethyl)phenyl)sulfonyl)-3,4-dihydro-2H-benzo[b][1,4]-oxazin-2-yl)-2-methylpropanoic acid] | < 500 | *** (The symbol “***” indicates a value in the range of greater than 150 to 200)
9 | O=C(O)[C@H]1C[C@H]([C@H]2CN(S(=O)(=O)c3cccc(C(F)(F)F)c3)c3cc(-c4cc(F)cc(OC(F)F)c4)ccc3O2)C1 [Compound 60K, (1S,3r)-3-((S)-6-(3-(difluoro-methoxy)-5-fluorophenyl)-4-((3-(trifluoromethyl)phenyl)-sulfonyl)-3,4-dihydro-2H-benzo[b][1,4]oxazin-2-yl)cyclobutane-1-carboxylic acid] | < 500 | ** (The symbol “**” indicates a value in the range of greater than 90 to 150)
10 | C[C@@H](C[C@H]1CN(S(=O)(=O)c2cccc(C(F)(F)F)c2)c2cc(-c3cc(F)cc(OC(F)F)c3)ccc2O1)C(=O)O [Compound 46P, (S)-3-((S)-6-(3-(difluoro-methoxy)-5-fluorophenyl)-4-((3-(trifluoromethyl)phenyl)sulfonyl)-3,4-dihydro-2H-benzo[b][1,4]-oxazin-2-yl)-2-methylpropanoic acid] | < 500 | *** (The symbol “***” indicates a value in the range of greater than 150 to 200)

Now from value to molecule, other results behind:

Row | EC50 [nM] | Compound | TR-FRET Assay Max Response
11 | < 500 | CC(C)(C[C@H]1CN(S(=O)(=O)c2cccc(C(F)(F)F)c2)c2cc(-c3c(F)cccc3C(F)(F)F)ccc2O1)C(=O)O [Compound 32AY, (S)-3-(6-(2-fluoro-6-(trifluoro-methyl)phenyl)-4-((3-(trifluoro-methyl)phenyl)sulfonyl)-3,4-dihydro-2H-benzo[b][1,4]oxazin-2-yl)-2,2-dimethylpropanoic acid] | ** (The symbol “**” indicates a value in the range of greater than 90 to 150)
12 | < 500 | C[C@@H](C[C@H]1CN(S(=O)(=O)c2cccc(C(F)(F)F)c2)c2cc(-c3cc(F)cc(F)c3)ccc2O1)C(=O)O [Compound 46S, (S)-3-((S)-6-(3,5-difluorophenyl)-4-((3-(trifluoromethyl)phenyl)-sulfonyl)-3,4-dihydro-2H-benzo[b][1,4]oxazin-2-yl)-2-methylpropanoic acid] | *** (The symbol “***” indicates a value in the range of greater than 150 to 200)
13 | < 500 | CC(C)(C[C@@H]1CN(S(=O)(=O)c2cccc(C(F)(F)F)c2)c2cc(-c3cc(F)ccc3F)ccc2O1)NC(=O)C(C)(C)O [Compound 30DD, (R)-N-(1-(6-(2,5-difluoro-phenyl)-4-((3-(trifluoromethyl)-phenyl)sulfonyl)-3,4-dihydro-2H-benzo[b][1,4]oxazin-2-yl)-2-methylpropan-2-yl)-2-hydroxy-2-methylpropanamide] | *** (The symbol “***” indicates a value in the range of greater than 150 to 200)
14 | < 500 | CC(C)(C[C@H]1CN(S(=O)(=O)c2cccc(C(F)(F)F)c2)c2cc(-c3cc(F)cc(F)c3Cl)ccc2O1)C(=O)O [Compound 32U, (S)-3-(6-(2-chloro-3,5-difluoro-phenyl)-4-((3-(trifluoromethyl)-phenyl)sulfonyl)-3,4-dihydro-2H-benzo[b][1,4]oxazin-2-yl)-2,2-dimethylpropanoic acid] | *** (The symbol “***” indicates a value in the range of greater than 150 to 200)
15 | < 500 | O=C(O)CC[C@H]1CN(S(=O)(=O)c2cccc(C(F)(F)F)c2)c2cc(-c3cc(F)cc(OC(F)F)c3)cc(F)c2O1 [Compound 22M, (S)-3-(6-(3-(difluoromethoxy)-5-fluorophenyl)-8-fluoro-4-((3-(trifluoromethyl)phenyl)sulfonyl)-3,4-dihydro-2H-benzo[b][1,4]-oxazin-2-yl)propanoic acid] | *** (The symbol “***” indicates a value in the range of greater than 150 to 200)
